Assay results published in patent US8426469B2, “Crystalline leukotriene B4” (LTB4 Sweden AB, priority 2006, dated 2013).
Entries after “also recorded” stand apart in the source; their conditions may differ.

Legend:
[1] = solubility of LTB4 in various solvents; type: physicochemical; settings: Table 1; the value is the solvent
From the text: Table 1 below summarizes the solubility of LTB4 in various solvents.

[2] = stability of leukotriene B4 as a function of pH; type: physicochemical; settings: alkaline pH versus neutral or acidic pH
From the text: Accordingly, in a preferred embodiment, the composition according to the present invention comprises an alkaline reacting carrier. The expression “alkaline reacting carrier”, in the context of the present invention, is intended to include an otherwise inert, pharmaceutically acceptable substance (or substances), which creates an alkaline “micro-pH” between 8.2 and 14, especially between 8.5 and 12.5, such as between 8.5 and 11.5, most preferably between 9.5 and 11.5, such as about 9.5, 9.6, 9.7, 9.8, 9.9, 10.0, 10.1, 10.2, 10.3, 10.4, 10.5, 10.6, 10.7, 10.8, 10.9, 11.0, 11.1, 11.2, 11.3, 11.4, or 11.5, around each LTB4 particle when water is adsorbed to the particles of the mixture or when water is added in small amounts to the mixture. In another preferred embodiment, the alkaline “micro-pH” ranges between 8.0 and 9.0, between 8.5 and 9.5, between 9.0 and 10.0, or between 10.0 and 11.5. […]

[3] = pH 7.0-7.6, stored at 2° C. to 25° C. (and above 25° C.); cited from earlier work

## CCCCC/C=C\C[C@@H](O)/C=C/C=C/C=C\[C@@H](O)CCCC(=O)O [LTB4, 5S,12R-dihydroxy-6,8,10,14(Z,E,E,Z)-eicosatetraenoic acid]
[1]
  Slightly soluble or insoluble (solvent in which LTB4 is slightly soluble or insoluble; anti-solvent): Toluene; also recorded: Water; also recorded: Heptane
[2]
  stability depending on pH: more stable at alkaline pH than at neutral or acidic pH
[3]
  stability of isotonic aqueous solution: stable for only short periods of time (weeks to months)
